The text below walks through data of patent US10519134B2, “Pyrazole compounds and methods of making and using same” (Lundbeck La Jolla Research Center, Inc., priority 2015, dated 2019).

Each structure is given as a SMILES string.

One assay deals with T1, FAAH (Mus musculus, UniProt O08914).
T1 construct: Proteomes (mouse brain membrane fraction or cell lysates); from tissue; host or cells: mouse brain membrane fraction (or cell lysates)
T1 sequence (O08914 1-579): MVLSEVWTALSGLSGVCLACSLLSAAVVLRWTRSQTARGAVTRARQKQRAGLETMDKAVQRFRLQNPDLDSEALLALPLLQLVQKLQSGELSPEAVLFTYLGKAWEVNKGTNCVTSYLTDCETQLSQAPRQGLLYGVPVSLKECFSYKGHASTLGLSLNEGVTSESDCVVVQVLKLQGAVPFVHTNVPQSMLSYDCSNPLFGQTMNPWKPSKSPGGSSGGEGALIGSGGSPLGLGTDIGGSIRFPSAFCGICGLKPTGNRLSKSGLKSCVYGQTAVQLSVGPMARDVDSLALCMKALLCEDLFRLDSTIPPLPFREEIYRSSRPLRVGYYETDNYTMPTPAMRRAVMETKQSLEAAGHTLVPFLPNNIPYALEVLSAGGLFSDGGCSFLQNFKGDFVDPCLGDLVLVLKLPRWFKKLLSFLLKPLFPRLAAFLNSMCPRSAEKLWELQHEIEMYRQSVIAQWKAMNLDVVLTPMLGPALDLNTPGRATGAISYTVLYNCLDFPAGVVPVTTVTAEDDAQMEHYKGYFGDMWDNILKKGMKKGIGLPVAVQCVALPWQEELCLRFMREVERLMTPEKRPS
In words: In vitro competitive activity-based protein profiling (mouse), FAAH gel band. Type of assay: biochemical. The following applies: for IC50: mouse; for inhibition at 1 µM: read-out: FAAH % inh. 1 μM. The procedure:
(§1) In Vitro Competitive Activity-Based Protein Profiling (Mouse).
(§2) Proteomes (mouse brain membrane fraction or cell lysates) (50 μL, 1.0 mg/mL total protein concentration) were preincubated with varying concentrations of inhibitors at 37° C. After 30 min, FP-Rh or HT-01 (1.0 μL, 50 μM in DMSO) was added and the mixture was incubated for another 30 min at 37° C. Reactions were quenched with SDS loading buffer (15 μL—4×) and run on SDS-PAGE. Following gel imaging, serine hydrolase activity was determined by measuring fluorescent intensity of gel bands corresponding to MAGL, ABHD6, and FAAH, using ImageJ 1.43u software.

In a further assay the target is T2, MAGL (Mus musculus, UniProt O35678).
T2 construct: Proteomes (mouse brain membrane fraction or cell lysates); from tissue; host or cells: mouse brain membrane fraction (or cell lysates)
T2 sequence (O35678 1-303): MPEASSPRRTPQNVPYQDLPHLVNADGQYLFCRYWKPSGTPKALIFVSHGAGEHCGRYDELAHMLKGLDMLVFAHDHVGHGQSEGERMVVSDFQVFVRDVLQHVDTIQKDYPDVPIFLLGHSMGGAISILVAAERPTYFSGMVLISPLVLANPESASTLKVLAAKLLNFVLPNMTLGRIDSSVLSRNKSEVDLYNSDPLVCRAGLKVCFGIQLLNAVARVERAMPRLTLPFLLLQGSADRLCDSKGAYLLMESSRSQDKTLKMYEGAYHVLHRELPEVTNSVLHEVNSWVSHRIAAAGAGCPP
Briefly: In vitro competitive activity-based protein profiling (mouse), MAGL gel band. The settings on record: for IC50: mouse; for inhibition at 1 µM: read-out: MAGL % inh. 1 μM. Type of assay: biochemical. The method, then:
as §1, §2

In general, IC50 refers to the concentration that gives 50% inhibition. Lower therefore signals higher potency. As to `CC(=O)Nc1ccn(C(=O)N2CCC3(CCCN3Cc3ccc4c(c3)OCCO4)CC2)n1` [Example 98, N-(1-(1-((2,3-dihydrobenzo[b][1,4]dioxin-6-yl)methyl)-1,8-diazaspiro[4.5]decane-8-carbonyl)-1H-pyrazol-3-yl)acetamide], on FAAH, the IC50 is 1000 to 10000 nM and the inhibition at 1 µM fell in the range of 0 to 25%. Besides, at MAGL, the IC50 was 100 to 1000 nM and the inhibition at 1 µM was not below 75%.
Consider `CC(=O)Nc1ccn(C(=O)N2CCC3(CCCN3Cc3ccc(N4CCOCC4)c(Cl)c3)CC2)n1` [Example 99, N-(1-(1-(3-chloro-4-morpholinobenzyl)-1,8-diazaspiro[4.5]decane-8-carbonyl)-1H-pyrazol-3-yl)acetamide], for which, at FAAH, the IC50 was 1000 to 10000 nM and the inhibition at 1 µM was in the range of 0 to 25%. Further, on MAGL, the IC50 lay in the range of 100 to 1000 nM and the inhibition at 1 µM is not below 75%.
In the case of `CC(=O)Nc1ccn(C(=O)N2CCC3(CCCN3Cc3ccc(N4CCCC4)c(Cl)c3)CC2)n1` [Example 100, N-(1-(1-(3-chloro-4-(pyrrolidin-1-yl)benzyl)-1,8-diazaspiro[4.5]decane-8-carbonyl)-1H-pyrazol-3-yl)acetamide], the IC50 on FAAH is 1000 to 10000 nM; at MAGL, not above 100 nM. For the same compound, the inhibition at 1 µM at FAAH was 0 to 25%; at MAGL it was not below 75%.
With `CC(=O)Nc1ccn(C(=O)N2CCC3(CCCN3Cc3ccc(C(F)(F)F)c(C(=O)O)c3)CC2)n1` [Example 108, 5-((8-(3-acetamido-1H-pyrazole-1-carbonyl)-1,8-diazaspiro[4.5]decan-1-yl)methyl)-2-(trifluoromethyl)benzoic Acid], the inhibition at 1 µM was in the range of 0 to 25% at FAAH and 50 to 75% on MAGL.
As to `CC(=O)Nc1ccn(C(=O)N2CCC3(CCCN3Cc3ccc(C(=O)O)c(C(F)(F)F)c3)CC2)n1` [Example 110, 4-((8-(3-acetamido-1H-pyrazole-1-carbonyl)-1,8-diazaspiro[4.5]decan-1-yl)methyl)-2-(trifluoromethyl)benzoic Acid], the inhibition at 1 µM at FAAH is 0 to 25%; at MAGL, not below 75%.
`CC(=O)Nc1ccn(C(=O)N2CCN(Cc3ccc(C#N)cc3-c3nnn[nH]3)CC2)n1` [Example 115, N-(1-(4-(4-cyano-2-(1H-tetrazol-5-yl)benzyl)piperazine-1-carbonyl)-1H-pyrazol-3-yl)acetamide]: the IC50 at FAAH lay within 1000 to 10000 nM; on MAGL it was 100 to 1000 nM. Besides, the inhibition at 1 µM was 0 to 25% on FAAH and not below 75% at MAGL.
Turning to `Cc1cc(CN2CCCC23CCN(C(=O)n2ccc(NC(=O)C(F)(F)F)n2)CC3)ccc1Cl` [Example 117, N-(1-(1-(4-chloro-3-methylbenzyl)-1,8-diazaspiro[4.5]decane-8-carbonyl)-1H-pyrazol-3-yl)-2,2,2-trifluoroacetamide], the inhibition at 1 µM at FAAH was 0 to 25%; on MAGL, not below 75%.
For `CC(=O)N1CC2(CCN(c3ccccc3CN3CCN(C(=O)n4ccc(NS(C)(=O)=O)n4)CC3)C2)C1` [Example 122, N-(1-(4-(2-(2-acetyl-2,6-diazaspiro[3.4]octan-6-yl)benzyl)piperazine-1-carbonyl)-1H-pyrazol-3-yl) methanesulfonamide], the inhibition at 1 µM at FAAH is 0 to 25%; on MAGL, 50 to 75%.
As for `CS(=O)(=O)Nc1ccn(C(=O)N2CCN(Cc3cc(C(F)(F)F)ccc3N3CCOCC3)CC2)n1` [Example 124, N-(1-(4-(2-morpholino-5-(trifluoromethyl)benzyl)piperazine-1-carbonyl)-1H-pyrazol-3-yl) methanesulfonamide], the inhibition at 1 µM was in the range of 0 to 25% at FAAH and 50 to 75% on MAGL.
The like results for `CS(=O)(=O)Nc1ccn(C(=O)N2CCC3(CCCN3Cc3ccc(C(F)(F)F)cc3N3CCOCC3)CC2)n1` [Example 126, N-(1-(1-(2-morpholino-4-(trifluoromethyl)benzyl)-1,8-diazaspiro[4.5]decane-8-carbonyl)-1H-pyrazol-3-yl)methanesulfonamide] were, in that order, 0 to 25% and not below 75%.
